Results published in the NIST ThermoML archive (doi:10.1016/j.jct.2014.07.005).

How the values were obtained:
[1] = mn = molality of the nth substance listed, in mol/kg; conditions: 100 kPa, Liquid; for viscosity: Capillary tube (Ostwald / Ubbelohde) method; for mass density: Vibrating tube method
[2] = 100 kPa, Liquid, Capillary tube (Ostwald / Ubbelohde) method

O [water] + CCCCCCCCn1cc[n+](C)c1.[Br-]
[1], m2 = 0
Conditions | viscosity [mPa·s]
288.15 K | 1.139
293.15 K | 1.002
298.15 K | 0.89
303.15 K | 0.798
308.15 K | 0.719
313.15 K | 0.653

O [water]
[2]
Conditions | viscosity [mPa·s]
288.15 K | 1.139
293.15 K | 1.002
298.15 K | 0.89
303.15 K | 0.798
308.15 K | 0.719
313.15 K | 0.653

CCCCCCCCn1cc[n+](C)c1.[Br-] [1-methyl-3-octylimidazolium bromide] + O
[1]
Conditions | mass density, m1 = 0.0035 [kg/m3] | mass density, m1 = 0.0111 [kg/m3] | mass density, m1 = 0.0185 [kg/m3] | viscosity, m1 = 0.0035 [mPa·s] | viscosity, m1 = 0.0111 [mPa·s] | viscosity, m1 = 0.0185 [mPa·s]
288.15 K | 999.275 | 999.611 | 999.913 | 1.146 | 1.151 | 1.154
293.15 K | 998.364 | 998.697 | 998.983 | 1.006 | 1.013 | 1.021
298.15 K | 997.197 | 997.499 | 997.781 | 0.895 | 0.9 | 0.904
303.15 K | 995.792 | 996.09 | 996.32 | 0.8 | 0.805 | 0.807
308.15 K | 994.141 | 994.373 | 994.59 | 0.721 | 0.723 | 0.728
313.15 K | 992.331 | 992.622 | 992.876 | 0.655 | 0.659 | 0.66
